Holding throughout (format): physicochemical
One data set is described as follows: bulk density.
Another data set can be described thus: tapped density.
A short description of data set [1]: intrinsic dissolution of amorphous rifaximin against the α Form. As to conditions: 37±0.5° C., 100 rpm. As to the method: Temperature: 37±0.5° C. Rotation speed: 100 rpm Particle size: Amorphous rifaximin—11 microns • α Form of rifaximin—13 microns
The mark [2] stands for this setting: 15 minutes, 1000 ml 0.1M sodium dihydrogen phosphate monohydrate + 4.5 g sodium lauryl sulphate.

Where two headings read alike, the source gives them in different places.

`CO[C@H]1/C=C/O[C@@]2(C)Oc3c(C)c(O)c4c(O)c(c5c(nc6cc(C)ccn65)c4c3C2=O)NC(=O)/C(C)=C\C=C\[C@H](C)[C@H](O)[C@@H](C)[C@@H](O)[C@@H](C)[C@H](OC(C)=O)[C@@H]1C` [Amorphous Rifaximin, (2S,16Z,18E,20S,21S,22R,23R,24R,25S,26 S,27S,28E)-5,6,21,23,25-pentahydroxy-27-methoxy-2,4,11,16,20,22,24,26-octamethyl-2,7-(epoxypentadeca-[1,11,13]trienimino)benzofuro[4,5-e]pyrido[1,2-a]-benzimida-zole-1,15(2H)-dione,25-acetate] registered a bulk density in the data set “bulk density” of 0.3 to 0.4 g/mL. This molecule had a tapped density in the data set “tapped density” of 0.4 to 0.5 g/mL. The “intrinsic dissolution profile compared with α Form” value in data set [1] (0.1M sodium dihydrogen phosphate monohydrate + sodium lauryl sulphate) is reported as “better dissolution profile than α Form”. In addition, the “% Release” value in data set [1] (setting [2]) is reported as 1.1%; in data set [1] (30 minutes, same medium), 1.9%; in data set [1] (45 minutes, same medium), 2.9%; in data set [1] (60 minutes, same medium), 3.7%; in data set [1] (120 minutes, same medium), 8.1%; in data set [1] (180 minutes, same medium) it was 12.6%. In addition, the “% Release” value in data set [1] (240 minutes, same medium) was 16.6%; in data set [1] (360 minutes, same medium), 24.7%; in data set [1] (480 minutes, same medium), 32.0%; in data set [1] (600 minutes, same medium), 39.5%; in data set [1] (720 minutes, same medium), 46.4%; in data set [1] (960 minutes, same medium), 60.4%. Further, the “% Release” value in data set [1] (1200 minutes, same medium) was determined as 72.9%; in data set [1] (1400 minutes, same medium), 83.0%.
For the molecule `CO[C@H]1/C=C/O[C@@]2(C)Oc3c(C)c(O)c4c(O)c(c5c(nc6cc(C)ccn65)c4c3C2=O)NC(=O)/C(C)=C\C=C\[C@H](C)[C@H](O)[C@@H](C)[C@@H](O)[C@@H](C)[C@H](OC(C)=O)[C@@H]1C` [α Form of Rifaximin, (2S,16Z,18E,20S,21S,22R,23R,24R,25S,26 S,27S,28E)-5,6,21,23,25-pentahydroxy-27-methoxy-2,4,11,16,20,22,24,26-octamethyl-2,7-(epoxypentadeca-[1,11,13]trienimino)benzofuro[4,5-e]pyrido[1,2-a]-benzimida-zole-1,15(2H)-dione,25-acetate, reference compound], the bulk density in “bulk density” (listed as α Form rifaximin) lay within 0.2 to 0.3 g/mL. In addition, the tapped density in “tapped density” (listed as α Form rifaximin) lay within 0.3 to 0.4 g/mL. The “% Release” value came out at 0.8% in data set [1] (setting [2]); 1.8% in data set [1] (30 minutes, same medium); 3.0% in data set [1] (45 minutes, same medium); 4.4% in data set [1] (60 minutes, same medium); 11.0% in data set [1] (120 minutes, same medium); 18.0% in data set [1] (180 minutes, same medium). Further, the “% Release” value turned out to be 24.6% in data set [1] (240 minutes, same medium); 38.7% in data set [1] (360 minutes, same medium); 47.5% in data set [1] (480 minutes, same medium); 52.7% in data set [1] (600 minutes, same medium); 56.4% in data set [1] (720 minutes, same medium); 62.9% in data set [1] (960 minutes, same medium). The “% Release” value amounted to 67.8% in data set [1] (1200 minutes, same medium) and 72.7% in data set [1] (1400 minutes, same medium).

These data come from patent publication US10702505B2, “Rifaximin” (CIPLA Limited, priority 2006, dated 2020).
